Source: US8952033B2, “4-anilinofuro[2,3-b]quinoline derivatives, their preparation processes, and pharmaceutical compositions comprising the same” (Kaohsiung Medical University, priority 2011, dated 2015)

Test system: SF-268 (central nervous system carcinoma cell)
Assay: MTT antiproliferative assay (cell growth %, GI50), SF-268
Format: cell-based
Description: Antiproliferative activities of the compounds of this invention were evaluated substantially according to the method as described in Tseng, C. […] The cells were treated with the test compounds, i.e., the compounds of this invention (in dimethylsulfoxide (DMSO)), or DMSO for 48 hours.
Before and after the treatment with the test compounds or DMSO, 3-(4,5-dimethylthiazol-2-yl)-2,5-diphenyltetrazolium bromide (MTT, 2 mg/mL, 100 μL) was added to each of the cultures, followed by cultivation for 2 hours. The resultant formazan was dissolved by the addition of DMSO. Absorbance at 570 nm (OD570) was measured using a microtiter plate reader (Dynex MRX-II).
Determination of GI50 was conducted thrice for each test compound. GI50 is expressed as mean±SD.

## C/C(=N\OCCN)c1ccc(Nc2c3ccccc3nc3occc23)cc1 [Compound 13a, (E)-1-(4-(furo[2,3-b]quinolin-4-ylamino)phenyl)ethanone O-2-aminoethyl oxime]
GI50 MRC-5 / GI50 SF-268
  SI SF-268: 6.84
Homo sapiens, SF-268, mean±SD, read-out: GI50 SF-268
  GI50: 6.26 ± 1.02 µM
